Source: patent US9045468B2, “2,5-methano- and 2,5-ethano-tetrahydrobenzazepine derivatives and use thereof to block reuptake of norepinephrine, dopamine, and serotonin” (Albany Molecular Research, Inc., priority 2010, dated 2015)

Key:
hDAT = hDAT (Homo sapiens (Human), UniProt Q01959); assay: DAT radioligand binding assay ([125I]RTI-55, HEK-293 membranes); details: recombinant HEK-293 membranes, [125I]RTI-55; read-out: Binding Affinity (IC50, nM) DAT
Protocol: (§1) Recombinant HEK-293 cells expressing either the hSERT, hDAT, or hNET proteins were harvested from T-175 flasks as follows. The medium was removed from the flasks and the cells rinsed with HBSS without Ca and without Mg. The cells were then incubated for 5-10 minutes in 10 mM Tris-Cl, pH 7.5, 5 mM EDTA before the cells were lifted with a combination of pipetting and scraping, as needed. The cell suspension was collected into centrifuge bottles and homogenized for 30 seconds with a Polytron homogenizer. The suspension was centrifuged for 30 minutes at 32,000×g, 4° C. The supernatant was decanted and the pellet resuspended and homogenized in 50 mM Tris-Cl, pH 7.5, 1 mM EDTA for 10 seconds. The suspension was then centrifuged again for 30 minutes at 32,000×g, 4° C. The supernatant was decanted and the pellet resuspended in 50 mM Tris-Cl, pH 7.5, 1 mM EDTA and briefly homogenized. A Bradford assay (Bio-rad) was performed and the membrane preparation diluted to 2 mg/ml with 50 mM Tris-Cl, pH 7.5, 1 mM EDTA. Aliquots were prepared, and then frozen and stored at −80° C.
Compounds were dissolved in 100% DMSO at a concentration 100 times the desired highest assay concentration, serially diluted 1:3 in 100% DMSO, and 0.4 μl/well of each solution was dispensed to a Nunc polypropylene, round bottom, 384-well plate. […] 20 ul/well of a 2× membrane preparation (12.5 μg/ml in 30 mM sodium phosphate buffer, pH 7.9 at 4° C.) and 20 μl/well of a 2× radioligand solution (250 pM [^125I]RTI-55 in 30 mM sodium phosphate buffer, pH 7.9 at 4° C.) were added to the well and the reaction incubated for 1 hour at room temperature. The contents of the assay plate were then transferred to a Millipore MultiscreenHTS GF/B filter plate which was pretreated with 0.5% PEI for at least one hour. The plate was vacuum-filtered and washed with 7 washes of 100 μl/well 50 mM Tris-Cl, pH 7.5, 120 mM NaCl, 5 mM KCl chilled to 4° C. The filtration and washing were completed in less than 90 seconds. The plates were air-dried overnight, 12 μl/well of MicroScint scintillation fluid added, and the plates counted in a Trilux.
(§2) Each plate was run in triplicate, and the concentration response curve thus generated was fit using the four-parameter dose response equation, Y=Bottom+(Top-Bottom)/(1+10^((Log IC50−X)*HillSlope)) in order to determine the IC50 value for each compound. The radioligand concentration chosen for each assay corresponds to the Kd concentration determined through saturation binding analysis for each assay.

hNET = hNET (Homo sapiens (Human), UniProt P23975); assay: NET radioligand binding assay ([3H]nisoxetine, HEK-293 membranes); details: recombinant HEK-293 membranes, [3H]nisoxetine; read-out: Binding Affinity (IC50, nM) NET
Protocol: as §1, with “The” for “Recombinant HEK-293 cells expressing either the hSERT, hDAT, or hNET proteins were harvested from T-175 flasks as follows. The”
Compounds were dissolved in 100% DMSO at a concentration 100 times the desired highest assay concentration, serially diluted 1:3 in 100% DMSO, and 1.0 μl/well of each solution was dispensed to a Nunc polypropylene, round bottom, 384-well plate. […] 50 μl/well of a 2× membrane preparation (0.4 mg/ml in 50 mM Tris-Cl, pH 7.5, 120 mM NaCl, 5 mM KCl) and 50 μl/well of a 2× radioligand solution (4 nM [^3H]nisoxetine in 50 mM Tris-Cl, pH 7.5, 120 mM NaCl, 5 mM KCl) were added to the well and the reaction incubated for 1 hour at room temperature. The contents of the assay plate were then transferred to a Millipore MultiscreenHTS GF/B filter plate which was pretreated with 0.5% PEI for at least one hour. The plate was vacuum filtered and washed with 7 washes of 100 μl/well 50 mM Tris-Cl, pH 7.5, 120 mM NaCl, 5 mM KCl chilled to 4° C. The filtration and washing were completed in less than 90 seconds. The plates were air-dried overnight, 12 μl/well of MicroScint scintillation fluid added, and the plates counted in a Trilux.
as §2

hSERT = hSERT (Homo sapiens (Human), UniProt P31645); assay: SERT radioligand binding assay ([125I]RTI-55, HEK-293 membranes); details: recombinant HEK-293 membranes, [125I]RTI-55; read-out: Binding Affinity (IC50, nM) SERT
Protocol: as §1, with “The” for “Recombinant HEK-293 cells expressing either the hSERT, hDAT, or hNET proteins were harvested from T-175 flasks as follows. The”
Compounds were dissolved in 100% DMSO at a concentration 100 times the desired highest assay concentration, serially diluted 1:3 in 100% DMSO, and 0.4 μl/well of each solution was dispensed to a Nunc polypropylene, round bottom, 384-well plate. […] The contents of the assay plate were then transferred to a Millipore MultiscreenHTS GF/B filter plate which was pretreated with 0.5% PEI for at least one hour. The plate was vacuum filtered and washed with 7 washes of […] 50 mM Tris-Cl, pH 7.5, 120 mM NaCl, 5 mM KCl chilled to 4° C. The filtration and washing were completed in less than 90 seconds. The plates were air-dried overnight, 12 μl/well of MicroScint scintillation fluid added, and the plates counted in a Trilux.
as §2

hDAT, sequence (Q01959 whole entry): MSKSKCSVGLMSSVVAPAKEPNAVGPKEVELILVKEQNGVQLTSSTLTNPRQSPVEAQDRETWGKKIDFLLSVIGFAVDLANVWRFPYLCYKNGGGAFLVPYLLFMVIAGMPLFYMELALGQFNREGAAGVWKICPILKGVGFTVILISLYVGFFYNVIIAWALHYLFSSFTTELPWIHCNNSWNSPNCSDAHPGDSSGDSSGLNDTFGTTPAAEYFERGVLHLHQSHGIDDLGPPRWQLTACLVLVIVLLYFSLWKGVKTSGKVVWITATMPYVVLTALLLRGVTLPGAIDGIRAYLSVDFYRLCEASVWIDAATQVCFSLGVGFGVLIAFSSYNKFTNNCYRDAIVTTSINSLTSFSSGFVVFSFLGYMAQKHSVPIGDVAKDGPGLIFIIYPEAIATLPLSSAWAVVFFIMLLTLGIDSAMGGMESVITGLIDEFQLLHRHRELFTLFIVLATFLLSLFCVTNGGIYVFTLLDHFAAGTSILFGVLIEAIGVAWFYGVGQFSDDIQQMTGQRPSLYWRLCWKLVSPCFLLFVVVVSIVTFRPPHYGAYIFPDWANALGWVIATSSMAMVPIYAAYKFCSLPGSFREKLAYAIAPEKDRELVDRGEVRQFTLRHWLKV
hSERT, sequence (P31645 whole entry): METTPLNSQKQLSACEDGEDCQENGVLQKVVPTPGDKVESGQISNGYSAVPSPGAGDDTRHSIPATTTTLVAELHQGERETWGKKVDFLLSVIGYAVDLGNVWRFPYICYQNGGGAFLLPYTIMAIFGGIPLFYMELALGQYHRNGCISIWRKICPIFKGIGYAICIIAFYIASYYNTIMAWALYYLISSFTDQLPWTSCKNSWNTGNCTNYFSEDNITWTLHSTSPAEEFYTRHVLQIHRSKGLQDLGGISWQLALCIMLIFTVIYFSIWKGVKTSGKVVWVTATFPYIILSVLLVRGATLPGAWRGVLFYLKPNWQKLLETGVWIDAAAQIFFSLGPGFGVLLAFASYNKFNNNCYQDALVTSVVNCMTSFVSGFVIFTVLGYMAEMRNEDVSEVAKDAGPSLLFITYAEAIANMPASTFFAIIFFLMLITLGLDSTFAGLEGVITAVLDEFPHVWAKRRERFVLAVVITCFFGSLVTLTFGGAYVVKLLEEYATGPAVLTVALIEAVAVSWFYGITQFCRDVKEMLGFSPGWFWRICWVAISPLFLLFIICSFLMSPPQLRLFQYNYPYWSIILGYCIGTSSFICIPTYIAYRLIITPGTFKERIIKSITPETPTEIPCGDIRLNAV
hNET, sequence (P23975 whole entry): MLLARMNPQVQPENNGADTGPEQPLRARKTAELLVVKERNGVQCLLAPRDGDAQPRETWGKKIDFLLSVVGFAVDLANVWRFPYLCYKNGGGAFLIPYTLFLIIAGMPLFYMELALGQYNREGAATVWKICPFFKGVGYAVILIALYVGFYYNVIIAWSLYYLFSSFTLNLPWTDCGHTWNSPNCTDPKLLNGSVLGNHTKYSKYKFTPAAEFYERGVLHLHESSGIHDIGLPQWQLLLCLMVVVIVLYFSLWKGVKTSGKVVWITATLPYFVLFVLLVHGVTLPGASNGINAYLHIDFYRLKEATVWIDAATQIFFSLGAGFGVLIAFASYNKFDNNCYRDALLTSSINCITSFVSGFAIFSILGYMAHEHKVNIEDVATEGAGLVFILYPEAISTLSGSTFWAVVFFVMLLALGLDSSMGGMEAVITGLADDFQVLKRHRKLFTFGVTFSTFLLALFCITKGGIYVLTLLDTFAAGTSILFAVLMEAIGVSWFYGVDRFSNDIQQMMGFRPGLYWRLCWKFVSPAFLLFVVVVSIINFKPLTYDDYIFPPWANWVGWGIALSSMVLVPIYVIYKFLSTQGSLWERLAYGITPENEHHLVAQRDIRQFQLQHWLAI

Structure (SMILES) | IC50 (hDAT) [nM] | IC50 (hNET) [nM] | IC50 (hSERT) [nM]
Clc1ccc(C23CCN(CC2)Cc2cc(-c4ccc5ncnn5c4)ccc23)cc1Cl [Example 37, 8-([1,2,4]triazolo[1,5-a]pyridin-6-yl)-5-(3,4-dichlorophenyl)-2,5-ethano-2,3,4,5-tetrahydro-1H-benzo[c]azepine] | 18.5 | 119 | 8.6
COc1ccc(-c2ccc3c(c2)CN2CCC3(c3ccc(Cl)c(Cl)c3)CC2)nn1 [Example 40, 5-(3,4-dichlorophenyl)-8-(6-methoxypyridazin-3-yl)-2,5-ethano-2,3,4,5-tetrahydro-1H-benzo[c]azepine] | 5.9 | 148 | 9.8
Oc1ccc(-c2ccc3c(c2)CN2CCC3(c3ccc(Cl)c(Cl)c3)CC2)nn1 [Example 41, 6-(5-(3,4-dichlorophenyl)-2,5-ethano-2,3,4,5-tetrahydro-1H-benzo[c]azepin-8-yl)pyridazin-3-ol] | 5.1 | 79.2 | 5
Cc1cc2ncnn2cc1-c1ccc2c(c1)CN1CCC2(c2ccc(Cl)c(Cl)c2)CC1 [Example 43, 5-(3,4-dichlorophenyl)-2,5-ethano-8-(7-methyl-[1,2,4]triazolo[1,5-a]pyridin-6-yl)-2,3,4,5-tetrahydro-1H-benzo[c]azepine] | 43.8 | 373 | 18.9
Clc1ccc(C23CCN(CC2)Cc2cc(Oc4cnccn4)ccc23)cc1Cl [Example 44, 5-(3,4-dichlorophenyl)-2,5-ethano-8-(pyrazin-2-yloxy)-2,3,4,5-tetrahydro-1H-benzo[c]azepine] | 33.9 | 161 | 4.7
FC(F)Oc1ccc2c(c1)CN1CCC2(c2ccc(Cl)c(Cl)c2)CC1 [Example 46, 5-(3,4-dichlorophenyl)-2,5-ethano-8-(difluoromethoxy)-2,3,4,5-tetrahydro-1H-benzo[c]azepine] | 55.2 | 140 | 3
FC(F)(F)c1ccc(Oc2ccc3c(c2)CN2CCC3(c3cccc(Cl)c3)CC2)nn1 [Example 49, 5-(3-chlorophenyl)-2,5-ethano-8-(6-(trifluoromethyl)pyridazin-3-yloxy)-2,3,4,5-tetrahydro-1H-benzo[c]azepine] | 55.9 | 451 | 24.2
FC(F)(F)c1ccc(C23CCN(CC2)Cc2cc(Oc4ccc(C(F)(F)F)nn4)ccc23)cc1 [Example 50, 2,5-ethano-5-(4-(trifluoromethyl)phenyl)-8-(6-(trifluoromethyl)pyridazin-3-yloxy)-2,3,4,5-tetrahydro-1H-benzo[c]azepine] | 614 | 1050 | 10.9
Fc1ccc(C23CCN(CC2)Cc2cc(Oc4ccc(C(F)(F)F)nn4)ccc23)cc1F [Example 51, 5-(3,4-difluorophenyl)-2,5-ethano-8-(6-(trifluoromethyl)pyridazin-3-yloxy)-2,3,4,5-tetrahydro-1H-benzo[c]azepine] | 63.2 | 231 | 20.2
Fc1ccc(C23CCN(CC2)Cc2cc(Oc4ccc(C(F)(F)F)nn4)ccc23)cc1 [Example 52, 5-(4-fluorophenyl)-2,5-ethano-8-(6-(trifluoromethyl)pyridazin-3-yloxy)-2,3,4,5-tetrahydro-1H-benzo[c]azepine] | 42.8 | 206 | 8.9
Fc1ccc(C23CCN(CC2)Cc2cc(-c4ccc(C(F)(F)F)nn4)ccc23)cc1Cl [Example 53, 5-(3-chloro-4-fluorophenyl)-2,5-ethano-8-(6-(trifluoromethyl)pyridazin-3-yl)-2,3,4,5-tetrahydro-1H-benzo[c]azepine] | 120 | 345 | 2.1
Fc1ccc(C23CCN(CC2)Cc2cc(-c4ccc5ncnn5c4)ccc23)cc1Cl [Example 54, 8-([1,2,4]triazolo[1,5-a]pyridin-6-yl)-5-(3-chloro-4-fluorophenyl)-2,5-ethano-2,3,4,5-tetrahydro-1H-benzo[c]azepine] | 78 | 541 | 4.4
